Test results: patent US20250136997A1, “COMPOSITIONS FOR SEQUESTERING ISOAMYL AMINE AND METHODS OF USE THEREFOR” (University of Louisville Research Foundation, Inc., priority 2023, published 2025)

Test: Single-strand gel shift (SSGS) assay
Format: binding
Details: oligos (2 μM) incubated with IAA (10 μM), 15% PAGE
Method: Single-strand gel shift (SSGS) assay. To identify the metabolite binding site of S100A8, we synthesized a series of oligonucleotides (oligos) (Eurofins Genomics LLC, KY) specific to the response putative IAA binding site at the promoter region of S100A8. The oligos ([…]) were incubated with […] of IAA at 37° C. for 30 minutes following electrophoresis on a 15% native PAGE without SDS in 0.5×TBE buffer. The oligos were stained with ethidium bromide ([…]) and visualized under ultraviolet (UV) light.
Given induction of bacterial metabolite IAA causes the degeneration of microglia by elevation of S100A8 at both the transcription and protein level, we hypothesized that IAA might directly target the promoter of S100A8 and regulate the expression of S100A8. Studying the interaction of metabolites, particularly small molecules, with nucleic acid is challenging due to a lack of appropriate tags for the metabolites. Because of this challenge, we developed a strategy raising the possibility to investigate the interaction of small molecules and nucleic acid.
To test our hypothesis, we first synthesized short single-DNA strains (around 60 mer length each) whose sequences spanned the promoter of S100A8 (FIG. 13A and Table 5). The site and sequence of the promoter and transcription start site (TSS) were determined according to the entire mRNA (Accession #NC_000069.7 (90,576,378 . . . 90,577,341)) and genomic sequence (Accession #L76381) from the NCBI nucleic acid database (FIG. 13A). These DNA oligos (2 μM) were incubated with IAA (10 μM) following native PAGE analysis (FIG. 4A). […] To define the accurate binding site of IAA, we synthesized 10 mer length DNA oligos covering the sequence of S100p1 (Table 5). Unfortunately, the 10 mer length oligo lost the conformational mobility shift in PAGE (FIG. 13C). We then tested the mobility shift with 20 mer oligos. […]

Substance: S100p1-G: CTGTGGGCAG CTGGCCAAGC (SEQ ID NO: 8), S100A8 promoter −57 . . . −38 (DNA CTGTGGGCAGCTGGCCAAGC; chemistry not given here)
- mobility shift on native PAGE after incubation with IAA: displayed a shift
